Test results as given in patent publication US9937235B2, “Lipidated peptides as anti-obesity agents” (USTAV ORGANICKE CHEMIE A BIOCHEMIE AKADEMIE VED CR, V.V.I, priority 2012, dated 2018).
Where a SMILES comes first, the peptide text is derived from it. [ ]: non-standard residue; d: D form. The star is where a group is joined. Palmitoyl = CCCCCCCCCCCCCCCC(=O)*; Myristoyl = CCCCCCCCCCCCCC(=O)*; Nle = CCCC[C@H](N)C(=O)O; Dap = NC[C@H](N)C(=O)O

How the values were obtained:
[1] = tested on: fasted C57BL/6 mice; assay: Food intake in fasted mice after ICV administration; type: in vivo; settings: 4 nmol/mouse; for % control: food intake vs saline
Summary of the method: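 Male C57BL/6 mice, food-deprived 17 h, received saline, PrRP or lipidated analogs either SC at 1-10 mg/kg or ICV into the third ventricle at 4 nmol/mouse.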

[2] = tested on: Fos immunoreactivity in Arc, PVN and NTS; assay: Fos immunohistochemistry after SC administration; type: in vivo, mouse; settings: 90 minutes after SC 5 mg/kg, fasted mice
Experimental: For Fos immunohistochemical processing, overnight fasted mice (n=5 mice/group) were treated SC with saline, [Dpr^1]PrRP31, [Dpr(oct)^1]PrRP31, [Dpr(myr)^1]PrRP31 or [Dpr(palm)^1]PrRP31 (dose 5 mg/kg). Ninety minutes after SC injection, the mice were deeply anesthetized with pentobarbital (50 mg/kg, IP) and perfused transcardially with 0.1 M phosphate buffer (PB, pH 7.4) containing 4% paraformaldehyde, 0.1% glutaraldehyde, and 10% picric acid (w/w). Then the brains were removed, postfixed in the same fixative overnight at 4° C., and infiltrated with 30% sucrose in 0.1 M PB for 48 h at 4° C. Before sectioning, the brains were rapidly (20 sec) frozen in cold isopentane (−30/−40° C.) and placed into a Reichert cryocut device adjusted to −16° C. for 1 h. 30 μm coronal sections were cut from the brains and collected as free floating in cold (4° C.) PB. […]
An identical set of mice was used for determination of Fos immunoreactivity in NTS, PVN, and Arc. […] Quantitative assessment was performed from the images captured with a Canon digital camera (PowerShot S40) and Leica DMLS light microscope in a computer screen obtained from 5-6 brain sections per animal. […] The counting of Fos-positive neurons was done under blinded conditions (the counted slides from each animal were analyzed independently and randomly and encoded by other person).

CCCCCCCCCCCCCC(=O)NC[C@H](N)C(=O)N[C@@H](CCCNC(=N)N)C(=O)N[C@@H](C)C(=O)N[C@@H](Cc1c[nH]cn1)C(=O)N[C@@H](CCC(N)=O)C(=O)N[C@@H](Cc1c[nH]cn1)C(=O)N[C@@H](CO)C(=O)N[C@@H](CCCC)C(=O)N[C@@H](CCC(=O)O)C(=O)N[C@H](C(=O)N[C@@H](CCCNC(=N)N)C(=O)N[C@H](C(=O)N1CCC[C@H]1C(=O)N[C@@H](CC(=O)O)C(=O)N[C@H](C(=O)N[C@@H](CC(N)=O)C(=O)N1CCC[C@H]1C(=O)N[C@@H](C)C(=O)N[C@@H](Cc1c[nH]c2ccccc12)C(=O)N[C@@H](Cc1ccc(O)cc1)C(=O)N[C@H](C(=O)NCC(=O)N[C@@H](CCCNC(=N)N)C(=O)NCC(=O)N[C@H](C(=O)N[C@@H](CCCNC(=N)N)C(=O)N1CCC[C@H]1C(=O)N[C@H](C(=O)NCC(=O)N[C@@H](CCCNC(=N)N)C(=O)N[C@@H](Cc1ccccc1)C(N)=O)C(C)C)[C@@H](C)CC)[C@@H](C)O)[C@@H](C)CC)[C@@H](C)O)[C@@H](C)O [Analog 5] (H-[Dap](Myristoyl)RAHQHS[Nle]ETRTPDINPAWYTGRGIRPVGRF-NH2)
food intake ([1]; 45 minutes): 0.35 g
% control ([1]; 45 minutes): 62%
food intake ([1]; 300 minutes): 0.96 g
% control ([1]; 300 minutes): 73%
Neural activity, Fos immunoreactivity [2]: significantly increased

CCCCCCCCCCCCCCCC(=O)NC[C@H](N)C(=O)N[C@@H](CCCNC(=N)N)C(=O)N[C@@H](C)C(=O)N[C@@H](Cc1c[nH]cn1)C(=O)N[C@@H](CCC(N)=O)C(=O)N[C@@H](Cc1c[nH]cn1)C(=O)N[C@@H](CO)C(=O)N[C@@H](CCCC)C(=O)N[C@@H](CCC(=O)O)C(=O)N[C@H](C(=O)N[C@@H](CCCNC(=N)N)C(=O)N[C@H](C(=O)N1CCC[C@H]1C(=O)N[C@@H](CC(=O)O)C(=O)N[C@H](C(=O)N[C@@H](CC(N)=O)C(=O)N1CCC[C@H]1C(=O)N[C@@H](C)C(=O)N[C@@H](Cc1c[nH]c2ccccc12)C(=O)N[C@@H](Cc1ccc(O)cc1)C(=O)N[C@H](C(=O)NCC(=O)N[C@@H](CCCNC(=N)N)C(=O)NCC(=O)N[C@H](C(=O)N[C@@H](CCCNC(=N)N)C(=O)N1CCC[C@H]1C(=O)N[C@H](C(=O)NCC(=O)N[C@@H](CCCNC(=N)N)C(=O)N[C@@H](Cc1ccccc1)C(N)=O)C(C)C)[C@@H](C)CC)[C@@H](C)O)[C@@H](C)CC)[C@@H](C)O)[C@@H](C)O [Analog 6] (H-[Dap](Palmitoyl)RAHQHS[Nle]ETRTPDINPAWYTGRGIRPVGRF-NH2)
food intake ([1]; 45 minutes): 0.38 g
% control ([1]; 45 minutes): 71%
food intake ([1]; 300 minutes): 1.3 g
% control ([1]; 300 minutes): 100%
Neural activity, Fos immunoreactivity [2]: significantly increased
